# Tests used:
# [1] = tested on: patients with irritable bowel syndrome with diarrhea; experiment: Subject symptom assessments, change from baseline after 12 weeks treatment; format: in vivo, human; conditions: 16 mcg per day for 12 weeks
# Method: The patients with irritable bowel syndrome with diarrhea defined in Example 1 received luboiprostone 16 mcg per day for 12 weeks.
# The assessments were conducted by the following criterias.
# Subject Evaluation of Abdominal Bloating: 0=Absent, 1=Mild, 2=Moderate, 3=Severe, and 4=Very Severe Subject Evaluation of Abdominal. Discomfort/Pain: 0=Absent, 1=Mild, 2=Moderate, 3=Severe, and 4=Very Severe Subject Evaluation of Constipation Severity: 0= Absent, 1=Mild, 2=Moderate, 3=Severe, and 4=Very Severe BM Frequency=(7×Number of BMs)/(Number of days) Subject Evaluation of Bowel Straining: 0=Absent, 1=Mild, 2=Moderate, 3=Severe, and 4=Very Severe
# [2] = tested on: patients with irritable bowel syndrome with diarrhea; experiment: Weekly responder rate for relief of IBS symptoms (7-point balanced scale) in patients; format: in vivo, human; conditions: 16 mcg per day, responder = moderately or significantly relieved
# Excerpt: The patients who had 25% or more loose or very loose stools during the baseline were enrolled as a patient with irritable bowel syndrome with diarrhea. The patients received placebo or lubiprostone 16 mcg per day.
smiles,measurement,setting,value
"CCCCC(F)(F)[C@@]1(O)CC[C@H]2[C@@H](CC(=O)[C@@H]2CCCCCCC(=O)O)O1 [lubiprostone, (−)-7-[(2R, 4aR, 5R, 7aR)-2-(1,1-difluoropentyl)-2-hydroxy-6-oxooctahydrocyclopenta[b]pyran-5-yl]heptancoic acid]","BM Frequency, change from the baseline after the treatment","[1]; BM Frequency=(7×Number of BMs)/(Number of days), baseline 3.64",0.36
same,"Abdominal Discomfort/Pain, change from the baseline after the treatment","[1]; score 0=Absent to 4=Very Severe, baseline 2.80",−1.08
same,"Constipation Severity, change from the baseline after the treatment","[1]; score 0=Absent to 4=Very Severe, baseline 3.16",−1.31
same,"Abdominal Bloating, change from the baseline after the treatment","[1]; score 0=Absent to 4=Very Severe, baseline 3.28",−1.37
same,"Bowel Straining, change from the baseline after the treatment","[1]; score 0=Absent to 4=Very Severe, baseline 4.00",−2.00
same,Weekly Responder Rate,[2]; Week 2,33.8%
same,Weekly Responder Rate,[2]; Week 3,34.9%
same,Weekly Responder Rate,[2]; Week 4,34.7%
